The target in this experiment is T1, Human IP6K1 (Homo sapiens, UniProt Q92551).
T1 construct: GST (N, cleaved yes); made in house; host or cells: C43 E. coli, pGEX-6P-2
Put plainly: IP6K1 high-throughput screen of the Sigma LOPAC (ADP-Glo Max, single point).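 Also: final compound concentration 10µM in 5% DMSO.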 Type of experiment: biochemical. In general terms: ADP-Glo turns the ADP formed in a reaction into a luminescent signal.

Where [1] appears, read: LOPAC single-point screen, ADP-Glo Max luminescence raw signal per well.
[2] abbreviates: LOPAC single-point screen, Z-score relative to plate average and StDev.
Where [3] appears, read: LOPAC single-point screen, ADP-Glo Max raw signal per well.
The mark [4] stands for this setting: LOPAC single-point screen, Z-score from raw signal with plate average and StDev.
The mark [5] stands for this setting: LOPAC single-point screen, Z-score against plate average and StDev.
The mark [6] stands for this setting: LOPAC single-point screen, Z-score from plate average and StDev.

Where two headings read alike, the source gives them in different places.

T1 sequence (Q92551 whole entry): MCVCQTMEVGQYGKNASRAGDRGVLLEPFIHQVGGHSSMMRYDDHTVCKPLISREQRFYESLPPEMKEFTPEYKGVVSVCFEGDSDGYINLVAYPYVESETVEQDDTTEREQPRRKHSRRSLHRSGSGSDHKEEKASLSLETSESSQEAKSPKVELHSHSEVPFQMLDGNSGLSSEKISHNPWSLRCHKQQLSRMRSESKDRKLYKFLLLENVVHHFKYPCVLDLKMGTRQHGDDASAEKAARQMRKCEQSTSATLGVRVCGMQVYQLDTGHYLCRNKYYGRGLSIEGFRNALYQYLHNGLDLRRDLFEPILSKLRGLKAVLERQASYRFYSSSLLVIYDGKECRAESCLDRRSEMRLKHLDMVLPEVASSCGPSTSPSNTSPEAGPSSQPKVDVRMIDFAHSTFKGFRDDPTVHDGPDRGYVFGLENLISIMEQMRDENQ

As to `Cl.NC1(C(=O)O)CCCCC1`, the “Raw Signal” value under setting [1] was determined as 53186. For the same compound, under setting [2], the Z-score is given as -0.8326.
As for `COc1ccc2c(c1)c(CC(=O)O)c(C)n2Cc1ccc(F)cc1`, the “Raw Signal” value under setting [3] amounted to 54531. Under setting [4], this compound registered a Z-score of -0.1292.
On the same counts, the results for `CC1CNCCN1S(=O)(=O)c1cccc2cnccc12.Cl.Cl` (stereo not drawn) are 52932 and -0.2456.
As for `CC1CN(S(=O)(=O)c2cccc3cnccc23)CCN1.Cl.Cl` (stereo not drawn), under setting [3], the “Raw Signal” value came to 53944. Under setting [5], this compound gave a Z-score of -0.07553.
Turning to `Cl.N=C(N)NC(=N)Nc1cccc(Cl)c1`, the “Raw Signal” value under setting [1] is listed as 49824. Moreover, the Z-score under setting [2] is listed as -1.085.
On the same counts, the results for `COc1ccc2c(c1)c(CC(=O)O)c(C)n2C(=O)c1ccccc1` are 53454 and -0.7854.
Take `CCN(CC)C(C)C(=O)N1c2ccccc2Sc2ccccc21.Cl` (stereo not drawn): the “Raw Signal” value under setting [3] is 55206. Under setting [5], the Z-score was found to be 0.007914.
Take `CCCc1c(-c2ccc(O)cc2)nn(-c2ccc(O)cc2)c1-c1ccc(O)cc1`: the “Raw Signal” value under setting [1] worked out at 52149. The compound also yielded a Z-score under setting [2] of -0.6129.
The like results for `Cl.NCC(O)C1CCCCCCC1` (stereo not drawn) were, in that order, 52354 and -0.5713.
On to `CSc1nc(N)c2ncn([C@@H]3O[C@H](COP(=O)(O)OP(=O)(O)O)[C@@H](O)[C@H]3O)c2n1.[Na].[Na].[Na]`, for which the “Raw Signal” value under setting [3] is recorded as 54295. The Z-score under setting [5] is reported as -0.01655.
As for `O=[N+]([O-])c1ccc(O[C@@H]2O[C@H](CO)[C@@H](O)[C@H](O)[C@H]2F)c([N+](=O)[O-])c1`, under setting [1], the “Raw Signal” value is 50009. The Z-score under setting [2] was -1.048.
For the compound `NC(=O)COc1c(F)cc(SCCNS(=O)(=O)c2ccccc2)cc1F`, under setting [3], the “Raw Signal” value amounted to 52796. Under setting [4], this compound registered a Z-score of -0.2684.
On the same counts, the results for `COc1cc(CCN)ccc1O.Cl` are 53513 and -0.1479.
For the compound `Cc1nnc2ccc(-c3cccc(C(F)(F)F)c3)nn12`, the “Raw Signal” value under setting [3] came to 54310. The compound further gave a Z-score under setting [5] of -0.01403.
The like results for `CN1C2CCC1CC(OC(=O)c1c[nH]c3ccccc13)C2.Cl` (stereo not drawn) were, in that order, 56078 and 0.01053.
Consider `C[N+]1(C)C2CCC1CC(OC(=O)c1c[nH]c3ccccc13)C2.[I-]` (stereo not drawn), for which, under setting [1], the “Raw Signal” value was 66909. Further, the Z-score under setting [6] is 2.115.
In the case of `Cl.Fc1ccc(C(OCCCc2c[nH]cn2)c2ccc(F)cc2)cc1`, the “Raw Signal” value under setting [3] worked out at 51668. The same compound had a Z-score under setting [4] of -0.458.
Consider `C[C@]12CC[C@@H](O)C[C@@H]1CC[C@@H]1[C@@H]2CC[C@]2(C)[C@@H](C(=O)CO)CC[C@@H]12`, for which the “Raw Signal” value under setting [3] is 54259. Under setting [5], this compound had a Z-score of -0.0226.
With `CN1C2CCC1CC(OC(c1ccccc1)c1ccc(Cl)cc1)C2.Cl` (stereo not drawn), the “Raw Signal” value under setting [1] worked out at 50933. Under setting [2], the Z-score was -0.8599.
Consider `Cl.O=C(OC1CCN(CCCl)CC1)C(c1ccccc1)c1ccccc1`, for which the “Raw Signal” value under setting [3] was 54369. In addition, the Z-score under setting [4] is reported as -0.1621.
For `COc1ccc(CCN)cc1O.Cl`, the “Raw Signal” value under setting [3] came to 55159. The Z-score under setting [5] is given as -0.001632.
For `O=C(O)c1cc([N+](=O)[O-])ccc1NCCCc1ccccc1`, the “Raw Signal” value turned out to be 51963 and the Z-score is -0.4084.
Consider `COc1ccc2[nH]c3c(c2c1)CCNC3`, for which the “Raw Signal” value under setting [1] turned out to be 69821. In addition, under setting [6], the Z-score stood at 2.097.
As for `Cc1cccc(C#Cc2ccccc2)n1.Cl`, the “Raw Signal” value under setting [1] is listed as 51049. For the same compound, the Z-score under setting [2] is reported as -0.562.
Regarding `Oc1cc(-c2ccccc2)nc2nc(Cl)ccc12`, the “Raw Signal” value under setting [3] stood at 57826. Moreover, the Z-score under setting [5] is -0.01534.
Consider `Nc1ncnc2c1c(-c1ccc(Oc3ccccc3)cc1)cn2C1CCCC1`, for which the “Raw Signal” value under setting [3] was determined as 53911. Under setting [4], the Z-score was -0.2551.
On the same counts, the results for `COCc1nc2c([nH]1)c(=O)n(C)c(=O)n2CC(C)C` are 51997 and -0.4027.
As to `Cl.Nc1c2c(nc3ccccc13)CCCC2`, the “Raw Signal” value stood at 49916 and the Z-score is recorded as -1.409.
On to `Cl.Nc1ccn([C@@H]2O[C@H](CO)[C@@H](O)[C@@H]2O)c(=O)n1`, for which the “Raw Signal” value under setting [1] is reported as 65878. Further, the Z-score under setting [6] is given as 1.403.
For the compound `Br.COc1ccc2c(c1)[C@]13CCCC[C@@H]1[C@H](C2)N(C)CC3.O`, the “Raw Signal” value under setting [3] amounted to 54296. In addition, under setting [4], the Z-score is given as -0.1769.
Consider `O=C(O)CN(CCOCCOCCN(CC(=O)O)CC(=O)O)CC(=O)O`, for which the “Raw Signal” value was found to be 55582 and the Z-score worked out at 0.08428.
For the compound `NC(N)=Nc1ccc2[nH]c3c(c2c1)C[C@@]1(O)[C@H]2Cc4ccc(O)c5c4[C@@]1(CCN2CC1CC1)[C@H]3O5.O=C(O)C(F)(F)F.O=C(O)C(F)(F)F`, the “Raw Signal” value under setting [1] worked out at 65830. Also, under setting [6], the Z-score came to 2.166.
On to `Cl.O[Si](CCCN1CCCCC1)(c1ccc(F)cc1)C1CCCCC1` (stereo not drawn), for which, under setting [3], the “Raw Signal” value is on record as 52920. The compound further gave a Z-score under setting [4] of -0.4564.
Consider `C[C@@H](N)Cc1cnc[nH]1.Cl.Cl`, for which the “Raw Signal” value was found to be 55341 and the Z-score amounted to 0.03533.
On to `COC(=O)[C@@H](N)Cc1ccc(O)c(O)c1.Cl`, for which the “Raw Signal” value under setting [1] turned out to be 38457. The compound further showed a Z-score under setting [2] of -3.394.
Take `CC(=N)NCCC[C@H](N)C(=O)O.Cl`: under setting [3], the “Raw Signal” value turned out to be 54044. The compound further had a Z-score under setting [5] of -0.05873.
For the compound `COc1cccc(C(=O)NCCN2CCN(c3ccc(Cl)cc3)CC2)c1`, under setting [3], the “Raw Signal” value was determined as 55564. This compound also came in with a Z-score under setting [4] of -0.4137.
Turning to `Cl.O=C(CCCN1CCC2(CC1)C(=O)N(CCc1ccc(N=C=S)cc1)CN2c1ccccc1)c1ccc(F)cc1`, the “Raw Signal” value under setting [3] was 54409. Further, the Z-score under setting [5] was found to be 0.002603.
On to `CNCCc1c[nH]c2ccc(O)cc12.O=C(O)C(=O)O`, for which the “Raw Signal” value under setting [3] is 53556. Under setting [4], this compound registered a Z-score of -0.1407.
As to `CC(COc1ccc(/C=C/c2ccccc2)cc1)[N+](C)(C)C.[I-]` (stereo not drawn), under setting [1], the “Raw Signal” value was 63739. Further, under setting [6], the Z-score came to 1.499.
`Cc1ccc(S(=O)(=O)N[C@@H](CCCCN)C(=O)CCl)cc1.Cl`: the “Raw Signal” value under setting [1] is listed as 53467. Moreover, the Z-score under setting [2] is -0.4967.
Turning to `Cl.NOCC(=O)O.NOCC(=O)O`, under setting [1], the “Raw Signal” value is on record as 66377. In addition, the Z-score under setting [6] is 1.491.
For the compound `Br.CCCN1CCc2cc(O)cc3c2[C@H]1Cc1ccc(O)c(O)c1-3`, under setting [1], the “Raw Signal” value is recorded as 52120. The same compound registered a Z-score under setting [2] of -0.6188.
The like results for `Br.CN1CCc2cc(O)cc3c2[C@H]1Cc1ccc(O)c(O)c1-3` were, in that order, 51557 and -0.7332.
On to `C[C@H](O)[C@H](O)[C@H]1CNc2nc(N)[nH]c(=O)c2N1.Cl`, for which the “Raw Signal” value under setting [3] amounted to 53766. Under setting [4], this compound showed a Z-score of -0.4386.
For `CC[C@@H]1Cc2cc(O)ccc2C2=C1c1ccc(O)cc1C[C@H]2CC`, the “Raw Signal” value under setting [1] is reported as 51869. The compound also came in with a Z-score under setting [2] of -0.6698.
On the same counts, the results for `Nc1ncnc2c1ncn2[C@@H]1O[C@H](COP(=O)(O)CP(=O)(O)OP(=O)([O-])[O-])[C@@H](O)[C@H]1O.[Li+].[Li+]` are 51012 and -0.5682.
The like results for `CCCCCCC(C(C)O)n1cnc2c(N)ncnc21.Cl` (stereo not drawn) were, in that order, 51235 and -0.7986.
